Laboratory results: patent publication US20170056379A1, “METHOD OF USING DOPAMINE REUPTAKE INHIBITORS AND THEIR ANALOGS FOR TREATING DIABETES SYMPTOMS AND DELAYING OR […]-[…]” (CALIPER LIFE SCIENCES, INC., priority 2009, published 2017)
Entries after “also recorded” stand apart in the source; their conditions may differ.

How the values were obtained:
Format in all cases: in vivo
[1] = system: FVB strain of mice; experiment: Mediation of diabetic-induced hypoalgesia (Hot-plate assay); conditions: for (Mean − Mean0)/Std0 (Wilcoxon rank sums, hot plate latency) / Score Mean (Wilcoxon rank sums, hot plate latency) / Score Sum (Wilcoxon rank sums, hot plate latency): hot plate 48° C.
Procedure: Mediation of diabetic-induced hypoalgesia (Hot-plate assay)—Mice were brought to the testing room and acclimatized for an hour before test. Pain reflexes in response to a thermal stimulus are measured using a Hot Plate Analgesia Meter from Harvard Apparatus. The plate surface was maintained at 48° C. that was measured by a built-in digital thermometer. Mice were placed on the hot plate which is surrounded by a clear acrylic cage with the Start/Stop trigger on the timer. […] For each subject, the test was performed three times with about 30 minute rest between tests. Animals were tested one at a time and were not habituated to the apparatus prior to testing.

[2] = system: FVB strain of mice; experiment: Mediation of hyperglycemic conditions: blood glucose and body mass in high fat diet mice; conditions: 10 mg/kg p.o. daily six days a week, after 4 weeks of treatment
Description: Mediation of hyperglycemic conditions—FVB strain of mice were used in this study. In our previous study (unpublished), we noted that the FVB strain provides a broad phenotypic window for most parameters of human diabetic conditions similar to C57B1/6. For instance, there was a noted weight gain and obesity induced with high and intermediate fat diets. A persistent high fat diet induces relatively robust hyperglycemic conditions and inefficient glucose disposal but with little noted effects on metabolic rate. There is little circadian impact and changes in activity patterns with the high fat diet.
Twenty FVB mice (˜12 weeks of age) were randomly separated into two groups (n=10). One group (of ten mice) was fed a high fat diet (ResearchDiets, New Brunswick, N.J., and Cat. #D12492); with the following caloric components: 20 percent protein; 20 percent carbohydrate; and 60 percent fat; 5.24 kcal/gram. Another group was fed with regular rodent chow (Labdiet, Richmond, Ind., product code 5010); 28.7 percent protein, 12.7 percent fat, and 58.6 percent carbohydrate; 3.43 kcal/gram. After seven-weeks, blood glucose levels (and body weight) of the two different groups were examined. […] The group fed on the high fat diet clearly developed a hyperglycemic condition. The difference in body mass was also clearly significant.
Each of the two groups were then further separated into two subgroups (n=5). For the high fat diet group, the separation of the animals from the hyperglycemic/high fat diet group into two sub-groups was normalized based on the blood glucose levels. One group, designated as high fat-D, were treated with a dopamine reuptake inhibitor (3-(phenylpropyl)-sydnonimine-N-phenylcarbamoyl), the other group, designated as high fat-N were treated with vehicle (30% captosol, 1% Tween (Tween® 20, a polyoxyethylene sorbitan esters available from Sigma) and 1% 1N HCl in H2O; hereafter referred to as vehicle). For the normal chow group, the separation was random but similarly designated and separated into drug treated (Normal-D) and vehicle controls (Normal-N). […]

[3] = system: FVB strain of mice; experiment: Home-cage health and behavior; conditions: high-fat-diet-drug-treated group, in contrast to the high-fat-diet-vehicle-treated group
Description: Home-cage health and behavior—This is not a […] measurement but the behavior pattern that we noticed during the study. All 4 groups of animals were housed in pairs or trios according to stratification of either treated with drug or vehicle. For three of the 4 groups, e.g. Normal Diet-drug-treated, Normal Diet-vehicle-treated, and high-fat-diet-drug-treated, the animals appear to be healthy, were docile to handlers and non-aggressive with each other. However the high-fat-diet-vehicle-treated group started to develop underbelly lesions, bite marks, and aggressive behavior towards littermates. This pattern of behavior became especially noticeable after overnight fasting (in order for fasting blood glucose level). In fact, after the above mentioned second examination (examination of fasting blood glucose level after 4 weeks of drug treatment), one of the mice in the high-fat-diet-vehicle-treated group had to be euthanized due to wounds and lesions. The remainders (of the four mice) were subsequently housed individually. These changes of behavior patterns and or behavior oddities are likely indicative of neurological changes under pre-diabetic or diabetic conditions.

[4] = system: FVB strain of mice; experiment: Mediation of diabetic hypoalgesia (Tail-flick assay); conditions: for (Mean − Mean0)/Std0 (Wilcoxon rank sums, tail-flick latency) / Score Mean (Wilcoxon rank sums, tail-flick latency) / Score Sum (Wilcoxon rank sums, tail-flick latency): 5.0 mg/kg p.o. an hour before test
Procedure: Mediation of diabetic hypoalgesia (Tail-flick assay)—Mice were brought to the testing room, acclimatized and administered 3-(phenylpropyl)-sydnonimine-N-phenylcarbamoyl (5.0 mg/kg; p.o.) an hour before test. Pain reflexes in response to a thermal stimulus are measured using a tail-flick analgesic meter with a built in stop-timer from Columbus Instruments. Latencies to respond for the thermal stimulation is recorder. For each subject, the test was performed three times with about 30 minute rests between tests. Animals are tested one at a time and are not habituated to the apparatus prior to testing.

CC(Cc1ccccc1)[n+]1cc([N-]C(=O)Nc2ccccc2)on1 (centres unmarked) [3-(phenylpropyl)-sydnonimine-N-phenylcarbamoyl]
thermal responses of high-fat-diet-drug-treated subjects compared with Normal Diet-vehicle-treated (hot plate) ([1]; FIG. 3): virtually no difference was observed
effect on hypoalgesic conditions induced by diabetic conditions (hot plate test) ([1]; FIG. 3, high fat diet mice): attenuated the hypoalgesic
(Mean − Mean0)/Std0 (Wilcoxon rank sums, hot plate latency) ([1]; High Fat-D group): −1.528
Score Mean (Wilcoxon rank sums, hot plate latency) ([1]; High Fat-D group): 6.600
Score Sum (Wilcoxon rank sums, hot plate latency) ([1]; High Fat-D group): 33.000
(Mean − Mean0)/Std0 (Wilcoxon rank sums, hot plate latency) ([1]; Normal-D group): 1.898
Score Mean (Wilcoxon rank sums, hot plate latency) ([1]; Normal-D group): 14.200
Score Sum (Wilcoxon rank sums, hot plate latency) ([1]; Normal-D group): 71.000
body mass of high fat diet groups compared with Normal Diet groups [2]: still noticeably higher than the groups on the Normal Diet regardless of the drug exposure
blood glucose levels of drug treated groups compared with respective sham treated groups ([2]; high fat and Normal Diet groups): lower levels of blood glucose than their respective sham treated groups
blood glucose levels of high fat diet drug treated mice compared with Normal Diet group ([2]; high fat diet, 10 mg/kg): indistinguishable from the group of mice fed a Normal Diet; also recorded: no discernable differences
home-cage health and behavior [3]: remained healthy, docile and playful with littermates
thermal responses of high-fat-diet-drug-treated subjects compared with Normal Diet-vehicle-treated (tail-flick) ([4]; FIG. 4): virtually no difference was observed
effect on hypoalgesic conditions induced by diabetic conditions (tail-flick test) ([4]; FIG. 4, high fat diet mice): attenuated the hypoalgesic
(Mean − Mean0)/Std0 (Wilcoxon rank sums, tail-flick latency) ([4]; High Fat-D group): −2.268
Score Mean (Wilcoxon rank sums, tail-flick latency) ([4]; High Fat-D group): 5.000
Score Sum (Wilcoxon rank sums, tail-flick latency) ([4]; High Fat-D group): 25.000
(Mean − Mean0)/Std0 (Wilcoxon rank sums, tail-flick latency) ([4]; Normal-D group): −0.139
Score Mean (Wilcoxon rank sums, tail-flick latency) ([4]; Normal-D group): 9.600
Score Sum (Wilcoxon rank sums, tail-flick latency) ([4]; Normal-D group): 48.000
